Source: the kinase profiling compilation of Christmann-Franck et al. (2016)

What was measured:
Assay in all cases: radiometric filter-binding kinase assay, Kinase HotSpot
Settings in all cases: compound 0.5 µM; ATP 10 µM
MATK (human) = MATK (human) (UniProt P42679)
TYRO3 (human) = TYRO3 (human) (UniProt Q06418)
CAMK2B (human) = CAMK2B (human) (UniProt Q13554)
PRKCA (human) = PRKCA (human) (UniProt P17252)
PRKG2 (human) = PRKG2 (human) (UniProt Q13237)
CDK6 CCND3 (human) = CDK6 CCND3 (human) (UniProt P30281+Q00534)
MST1R (human) = MST1R (human) (UniProt Q04912)
EPHA5 (human) = EPHA5 (human) (UniProt P54756)
MAPK10 (human) = MAPK10 (human) (UniProt P53779)
CDK3 CCNE1 (human) = CDK3 CCNE1 (human) (UniProt Q00526+P24864)
RIPK2 (human) = RIPK2 (human) (UniProt O43353)
OXSR1 (human) = OXSR1 (human) (UniProt O95747)
PIM3 (human) = PIM3 (human) (UniProt Q86V86)
PIM2 (human) = PIM2 (human) (UniProt Q9P1W9)
MUSK (human) = MUSK (human) (UniProt O15146)
SGK3 (human) = SGK3 (human) (UniProt Q96BR1)
MINK1 (human) = MINK1 (human) (UniProt Q8N4C8)
ITK (human) = ITK (human) (UniProt Q08881)
GSK3A (human) = GSK3A (human) (UniProt P49840)
[1] = biological target: JAK1 JH1 catalytic (human) (UniProt P23458)
STK3 (human) = STK3 (human) (UniProt Q13188)
MAP2K2 (human) = MAP2K2 (human) (UniProt P36507)
RPS6KA1 KD1 KD2 (human) = RPS6KA1 KD1 KD2 (human) (UniProt Q15418)
MAP4K5 (human) = MAP4K5 (human) (UniProt Q9Y4K4)
MAP3K10 (human) = MAP3K10 (human) (UniProt Q02779)
PASK (human) = PASK (human) (UniProt Q96RG2)
MAP4K4 (human) = MAP4K4 (human) (UniProt O95819)
BRSK1 (human) = BRSK1 (human) (UniProt Q8TDC3)
RPS6KA2 KD1 KD2 (human) = RPS6KA2 KD1 KD2 (human) (UniProt Q15349)
SIK2 (human) = SIK2 (human) (UniProt Q9H0K1)
MAPKAPK2 (human) = MAPKAPK2 (human) (UniProt P49137)
PRKCI (human) = PRKCI (human) (UniProt P41743)
TEK (human) = TEK (human) (UniProt Q02763)
NEK1 (human) = NEK1 (human) (UniProt Q96PY6)
TSSK1B (human) = TSSK1B (human) (UniProt Q9BXA7)
CSF1R (human) = CSF1R (human) (UniProt P07333)
ULK2 (human) = ULK2 (human) (UniProt Q8IYT8)
FES (human) = FES (human) (UniProt P07332)
IKBKB (human) = IKBKB (human) (UniProt O14920)
RET (human) = RET (human) (UniProt P07949)
CAMK4 (human) = CAMK4 (human) (UniProt Q16566)
EGFR (human) = EGFR (human) (UniProt P00533)

MINK1 (human), sequence (Q8N4C8 whole entry, looked up): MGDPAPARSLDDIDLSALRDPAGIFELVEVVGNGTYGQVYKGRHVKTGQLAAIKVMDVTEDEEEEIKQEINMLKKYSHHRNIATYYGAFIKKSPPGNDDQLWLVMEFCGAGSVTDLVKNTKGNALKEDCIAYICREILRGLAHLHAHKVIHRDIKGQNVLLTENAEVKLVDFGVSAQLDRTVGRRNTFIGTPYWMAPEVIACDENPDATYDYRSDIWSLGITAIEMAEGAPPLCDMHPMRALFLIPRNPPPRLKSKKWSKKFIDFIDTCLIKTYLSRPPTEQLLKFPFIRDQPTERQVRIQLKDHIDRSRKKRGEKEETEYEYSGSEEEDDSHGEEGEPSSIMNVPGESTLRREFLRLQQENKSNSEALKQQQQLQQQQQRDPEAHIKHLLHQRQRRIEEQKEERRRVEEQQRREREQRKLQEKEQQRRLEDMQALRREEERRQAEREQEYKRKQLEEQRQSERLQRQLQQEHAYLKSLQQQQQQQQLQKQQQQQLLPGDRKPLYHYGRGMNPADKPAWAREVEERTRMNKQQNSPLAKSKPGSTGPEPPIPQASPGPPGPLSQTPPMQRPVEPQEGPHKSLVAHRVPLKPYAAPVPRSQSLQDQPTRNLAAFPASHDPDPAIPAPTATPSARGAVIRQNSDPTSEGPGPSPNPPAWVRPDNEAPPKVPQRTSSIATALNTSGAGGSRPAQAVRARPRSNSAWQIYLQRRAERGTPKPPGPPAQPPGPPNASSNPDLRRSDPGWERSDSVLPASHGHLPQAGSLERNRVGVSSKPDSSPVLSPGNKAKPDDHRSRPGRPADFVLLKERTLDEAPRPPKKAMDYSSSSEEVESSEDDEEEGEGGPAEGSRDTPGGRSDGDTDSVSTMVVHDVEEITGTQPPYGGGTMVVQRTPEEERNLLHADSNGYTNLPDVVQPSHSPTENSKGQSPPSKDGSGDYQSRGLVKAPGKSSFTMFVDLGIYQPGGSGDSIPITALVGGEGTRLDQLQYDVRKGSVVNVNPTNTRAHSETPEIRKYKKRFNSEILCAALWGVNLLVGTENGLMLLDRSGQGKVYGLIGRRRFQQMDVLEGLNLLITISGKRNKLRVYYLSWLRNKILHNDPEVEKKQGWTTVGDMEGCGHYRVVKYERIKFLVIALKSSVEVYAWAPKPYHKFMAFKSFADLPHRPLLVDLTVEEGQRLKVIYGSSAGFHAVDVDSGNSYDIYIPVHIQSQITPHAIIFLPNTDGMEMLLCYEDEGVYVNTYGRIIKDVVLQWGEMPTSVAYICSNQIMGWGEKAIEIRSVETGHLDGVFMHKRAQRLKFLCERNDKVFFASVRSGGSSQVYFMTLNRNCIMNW
CDK3 CCNE1 (human), sequence (P24864 whole entry, looked up): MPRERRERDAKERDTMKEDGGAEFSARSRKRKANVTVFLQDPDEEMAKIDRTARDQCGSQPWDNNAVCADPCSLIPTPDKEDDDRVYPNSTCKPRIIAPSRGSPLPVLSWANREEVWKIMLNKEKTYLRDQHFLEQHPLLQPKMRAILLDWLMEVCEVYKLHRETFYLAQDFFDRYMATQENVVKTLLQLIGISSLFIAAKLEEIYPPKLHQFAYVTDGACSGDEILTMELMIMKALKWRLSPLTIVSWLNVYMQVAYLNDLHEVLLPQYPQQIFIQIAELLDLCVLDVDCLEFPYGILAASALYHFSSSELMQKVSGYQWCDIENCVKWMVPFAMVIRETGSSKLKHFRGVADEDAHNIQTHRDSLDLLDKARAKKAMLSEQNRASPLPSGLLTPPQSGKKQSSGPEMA
CDK3 CCNE1 (human), sequence (Q00526 whole entry, looked up): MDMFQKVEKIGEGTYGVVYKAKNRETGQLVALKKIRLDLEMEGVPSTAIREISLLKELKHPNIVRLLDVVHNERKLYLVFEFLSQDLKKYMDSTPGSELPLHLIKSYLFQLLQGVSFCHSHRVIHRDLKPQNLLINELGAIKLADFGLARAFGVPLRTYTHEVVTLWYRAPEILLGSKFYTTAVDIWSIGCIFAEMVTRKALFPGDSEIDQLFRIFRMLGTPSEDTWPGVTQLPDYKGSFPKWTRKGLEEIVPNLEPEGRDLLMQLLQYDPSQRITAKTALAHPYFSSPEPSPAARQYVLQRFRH
MAP3K10 (human), sequence (Q02779 whole entry, looked up): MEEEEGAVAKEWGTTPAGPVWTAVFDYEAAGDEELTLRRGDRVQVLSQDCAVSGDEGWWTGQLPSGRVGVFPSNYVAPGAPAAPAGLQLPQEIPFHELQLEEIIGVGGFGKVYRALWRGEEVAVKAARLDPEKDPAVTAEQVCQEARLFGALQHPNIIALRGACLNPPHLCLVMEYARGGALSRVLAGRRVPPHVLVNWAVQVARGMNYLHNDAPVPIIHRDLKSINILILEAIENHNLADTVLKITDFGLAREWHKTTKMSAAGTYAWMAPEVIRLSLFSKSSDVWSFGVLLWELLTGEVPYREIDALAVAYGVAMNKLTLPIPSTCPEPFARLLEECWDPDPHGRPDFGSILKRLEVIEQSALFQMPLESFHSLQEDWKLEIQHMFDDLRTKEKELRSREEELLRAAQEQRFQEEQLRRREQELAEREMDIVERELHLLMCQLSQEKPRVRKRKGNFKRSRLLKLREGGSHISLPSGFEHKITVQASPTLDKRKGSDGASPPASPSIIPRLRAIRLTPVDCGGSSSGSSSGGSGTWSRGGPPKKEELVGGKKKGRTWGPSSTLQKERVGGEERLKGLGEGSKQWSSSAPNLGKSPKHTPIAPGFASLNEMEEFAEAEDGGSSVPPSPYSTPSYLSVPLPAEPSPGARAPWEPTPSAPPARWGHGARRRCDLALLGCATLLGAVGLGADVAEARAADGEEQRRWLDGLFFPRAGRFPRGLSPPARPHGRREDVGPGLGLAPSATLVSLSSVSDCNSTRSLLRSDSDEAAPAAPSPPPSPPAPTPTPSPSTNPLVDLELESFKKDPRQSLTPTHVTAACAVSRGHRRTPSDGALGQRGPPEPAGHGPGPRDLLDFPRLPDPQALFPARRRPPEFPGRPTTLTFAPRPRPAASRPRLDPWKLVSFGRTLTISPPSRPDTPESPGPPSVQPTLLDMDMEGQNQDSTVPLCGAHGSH
CAMK2B (human), sequence (Q13554 whole entry, looked up): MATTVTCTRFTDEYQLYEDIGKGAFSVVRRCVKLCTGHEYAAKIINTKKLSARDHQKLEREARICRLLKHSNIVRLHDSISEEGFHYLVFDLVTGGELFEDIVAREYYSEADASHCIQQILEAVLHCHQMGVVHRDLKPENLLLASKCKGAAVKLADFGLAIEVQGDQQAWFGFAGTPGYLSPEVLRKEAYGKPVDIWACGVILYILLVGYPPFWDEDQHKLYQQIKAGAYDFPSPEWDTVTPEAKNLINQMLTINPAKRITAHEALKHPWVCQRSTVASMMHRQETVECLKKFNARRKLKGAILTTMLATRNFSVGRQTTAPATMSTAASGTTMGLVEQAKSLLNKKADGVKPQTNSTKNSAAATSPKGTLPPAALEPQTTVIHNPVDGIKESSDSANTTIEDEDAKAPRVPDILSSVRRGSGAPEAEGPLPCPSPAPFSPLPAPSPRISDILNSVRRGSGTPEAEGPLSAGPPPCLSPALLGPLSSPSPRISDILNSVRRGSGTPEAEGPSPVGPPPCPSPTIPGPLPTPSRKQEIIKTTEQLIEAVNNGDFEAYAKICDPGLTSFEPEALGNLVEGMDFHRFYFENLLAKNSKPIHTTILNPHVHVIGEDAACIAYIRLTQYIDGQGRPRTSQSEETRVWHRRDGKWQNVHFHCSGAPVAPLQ
CDK6 CCND3 (human), sequence (P30281 whole entry, looked up): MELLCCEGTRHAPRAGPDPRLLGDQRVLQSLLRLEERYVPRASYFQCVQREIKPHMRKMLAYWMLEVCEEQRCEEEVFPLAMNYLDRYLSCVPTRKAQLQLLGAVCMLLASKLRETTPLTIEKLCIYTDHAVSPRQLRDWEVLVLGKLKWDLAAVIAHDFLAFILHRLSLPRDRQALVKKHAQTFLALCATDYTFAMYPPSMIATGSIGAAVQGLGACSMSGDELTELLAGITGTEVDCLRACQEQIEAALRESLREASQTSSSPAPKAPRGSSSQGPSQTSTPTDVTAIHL
CDK6 CCND3 (human), sequence (Q00534 whole entry, looked up): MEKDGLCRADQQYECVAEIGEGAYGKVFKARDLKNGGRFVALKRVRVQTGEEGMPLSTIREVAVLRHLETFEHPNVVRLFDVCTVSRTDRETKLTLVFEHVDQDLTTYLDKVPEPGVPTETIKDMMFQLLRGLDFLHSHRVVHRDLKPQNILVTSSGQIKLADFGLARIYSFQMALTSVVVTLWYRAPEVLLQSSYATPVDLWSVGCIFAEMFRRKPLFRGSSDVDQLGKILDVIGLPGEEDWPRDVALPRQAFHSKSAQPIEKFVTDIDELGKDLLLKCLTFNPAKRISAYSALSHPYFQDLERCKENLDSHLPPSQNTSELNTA
RIPK2 (human), sequence (O43353 whole entry, looked up): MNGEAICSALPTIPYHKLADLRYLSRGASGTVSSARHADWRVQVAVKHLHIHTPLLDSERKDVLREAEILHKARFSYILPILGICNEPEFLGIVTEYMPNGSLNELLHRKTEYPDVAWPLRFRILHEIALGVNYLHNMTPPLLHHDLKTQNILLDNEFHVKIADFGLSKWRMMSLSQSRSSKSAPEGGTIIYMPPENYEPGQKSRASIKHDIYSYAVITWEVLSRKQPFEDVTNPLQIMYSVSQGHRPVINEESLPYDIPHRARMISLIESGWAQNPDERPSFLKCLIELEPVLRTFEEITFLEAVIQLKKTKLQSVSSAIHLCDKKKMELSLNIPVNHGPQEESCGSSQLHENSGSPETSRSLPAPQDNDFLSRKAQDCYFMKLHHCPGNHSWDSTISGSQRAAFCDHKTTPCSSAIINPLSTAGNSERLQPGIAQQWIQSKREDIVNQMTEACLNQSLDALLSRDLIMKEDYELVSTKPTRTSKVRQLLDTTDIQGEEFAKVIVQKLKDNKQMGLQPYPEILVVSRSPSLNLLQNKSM

SMILES: COc1cc2ncnc(Nc3cccc(Cl)c3)c2cc1OC
- residual activity (MATK (human)): 103%
- residual activity (TYRO3 (human)): 96.7%
- residual activity (CAMK2B (human)): 91.2%
- residual activity (PRKCA (human)): 111%
- residual activity (PRKG2 (human)): 92.2%
- residual activity (CDK6 CCND3 (human)): 90.1%
- residual activity (MST1R (human)): 87.8%
- residual activity (EPHA5 (human)): 68.3%
- residual activity (MAPK10 (human)): 89%
- residual activity (CDK3 CCNE1 (human)): 95.2%
- residual activity (RIPK2 (human)): 45.4%
- residual activity (OXSR1 (human)): 92%
- residual activity (PIM3 (human)): 99.4%
- residual activity (PIM2 (human)): 104%
- residual activity (MUSK (human)): 88.3%
- residual activity (SGK3 (human)): 90.9%
- residual activity (MINK1 (human)): 83.1%
- residual activity (ITK (human)): 93.8%
- residual activity (GSK3A (human)): 104%
- residual activity [1]: 90.4%
- residual activity (STK3 (human)): 124%
- residual activity (MAP2K2 (human)): 102%
- residual activity (RPS6KA1 KD1 KD2 (human)): 87.3%
- residual activity (MAP4K5 (human)): 59.5%
- residual activity (MAP3K10 (human)): 101%
- residual activity (PASK (human)): 90.2%
- residual activity (MAP4K4 (human)): 68.1%
- residual activity (BRSK1 (human)): 93.1%
- residual activity (RPS6KA2 KD1 KD2 (human)): 85.5%
- residual activity (SIK2 (human)): 98.7%
- residual activity (MAPKAPK2 (human)): 98%
- residual activity (PRKCI (human)): 97.5%
- residual activity (TEK (human)): 88.6%
- residual activity (NEK1 (human)): 93.1%
- residual activity (TSSK1B (human)): 95.7%
- residual activity (CSF1R (human)): 98.2%
- residual activity (ULK2 (human)): 103%
- residual activity (FES (human)): 104%
- residual activity (IKBKB (human)): 102%
- residual activity (RET (human)): 35.3%
- residual activity (CAMK4 (human)): 94.4%
- residual activity (EGFR (human)): 0.718%

SMILES: Nc1ncnc2[nH]nc(Nc3ccc(F)cc3)c12
- residual activity (MATK (human)): 95.6%
- residual activity (TYRO3 (human)): 100%
- residual activity (CAMK2B (human)): 97.7%
- residual activity (PRKCA (human)): 98%
- residual activity (PRKG2 (human)): 97%
- residual activity (CDK6 CCND3 (human)): 99.6%
- residual activity (MST1R (human)): 93.7%
- residual activity (EPHA5 (human)): 87%
- residual activity (MAPK10 (human)): 100%
- residual activity (CDK3 CCNE1 (human)): 104%
- residual activity (RIPK2 (human)): 68.7%
- residual activity (OXSR1 (human)): 110%
- residual activity (PIM3 (human)): 95%
- residual activity (PIM2 (human)): 89.3%
- residual activity (MUSK (human)): 93.9%
- residual activity (SGK3 (human)): 102%
- residual activity (MINK1 (human)): 88.9%
- residual activity (ITK (human)): 93.9%
- residual activity (GSK3A (human)): 88.6%
- residual activity [1]: 99%
- residual activity (STK3 (human)): 90.8%
- residual activity (MAP2K2 (human)): 90%
- residual activity (RPS6KA1 KD1 KD2 (human)): 82.2%
- residual activity (MAP4K5 (human)): 52%
- residual activity (MAP3K10 (human)): 85.9%
- residual activity (PASK (human)): 91.8%
- residual activity (MAP4K4 (human)): 59.4%
- residual activity (BRSK1 (human)): 63%
- residual activity (RPS6KA2 KD1 KD2 (human)): 70.6%
- residual activity (SIK2 (human)): 78.7%
- residual activity (MAPKAPK2 (human)): 105%
- residual activity (PRKCI (human)): 91.3%
- residual activity (TEK (human)): 94.9%
- residual activity (NEK1 (human)): 94%
- residual activity (TSSK1B (human)): 96.4%
- residual activity (CSF1R (human)): 101%
- residual activity (ULK2 (human)): 110%
- residual activity (FES (human)): 100%
- residual activity (IKBKB (human)): 105%
- residual activity (RET (human)): 78.1%
- residual activity (CAMK4 (human)): 103%
- residual activity (EGFR (human)): 100%

SMILES: CCN(CC)CCNC(=O)c1c(C)[nH]c(/C=C2\C(=O)Nc3ccc(Cl)cc32)c1C
- residual activity (MATK (human)): 96.8%
- residual activity (TYRO3 (human)): 23.2%
- residual activity (CAMK2B (human)): 27.3%
- residual activity (PRKCA (human)): 93.1%
- residual activity (PRKG2 (human)): 82.6%
- residual activity (CDK6 CCND3 (human)): 41.6%
- residual activity (MST1R (human)): 96.7%
- residual activity (EPHA5 (human)): 90.4%
- residual activity (MAPK10 (human)): 104%
- residual activity (CDK3 CCNE1 (human)): 88.3%
- residual activity (RIPK2 (human)): 84.1%
- residual activity (OXSR1 (human)): 80.1%
- residual activity (PIM3 (human)): 74%
- residual activity (PIM2 (human)): 101%
- residual activity (MUSK (human)): 63.5%
- residual activity (SGK3 (human)): 103%
- residual activity (MINK1 (human)): 4.4%
- residual activity (ITK (human)): 30%
- residual activity (GSK3A (human)): 88.3%
- residual activity [1]: 65.8%
- residual activity (STK3 (human)): 16.9%
- residual activity (MAP2K2 (human)): 41.4%
- residual activity (RPS6KA1 KD1 KD2 (human)): 13.1%
- residual activity (MAP4K5 (human)): 0.833%
- residual activity (MAP3K10 (human)): 82.8%
- residual activity (PASK (human)): 89.6%
- residual activity (MAP4K4 (human)): 4.33%
- residual activity (BRSK1 (human)): 36.5%
- residual activity (RPS6KA2 KD1 KD2 (human)): 10%
- residual activity (SIK2 (human)): 42.7%
- residual activity (MAPKAPK2 (human)): 103%
- residual activity (PRKCI (human)): 91.9%
- residual activity (TEK (human)): 98.2%
- residual activity (NEK1 (human)): 94.7%
- residual activity (TSSK1B (human)): 8.45%
- residual activity (CSF1R (human)): 7.41%
- residual activity (ULK2 (human)): 43%
- residual activity (FES (human)): 22.1%
- residual activity (IKBKB (human)): 101%
- residual activity (RET (human)): 2.47%
- residual activity (CAMK4 (human)): 95%
- residual activity (EGFR (human)): 97%
